O=[N+]([O-])c1cn[nH]c1[N+](=O)[O-]
solubility (mole fraction) (in 2-butanone, 283.15 K): 0.429
solubility (mole fraction) (in 2-butanone, 288.15 K): 0.45
solubility (mole fraction) (in 2-butanone, 293.15 K): 0.476
solubility (mole fraction) (in 2-butanone, 298.15 K): 0.498
solubility (mole fraction) (in 2-butanone, 303.15 K): 0.525
solubility (mole fraction) (in 2-butanone, 308.15 K): 0.554
solubility (mole fraction) (in 2-butanone, 313.15 K): 0.578
solubility (mole fraction) (in 2-butanone, 318.15 K): 0.602
solubility (mole fraction) (in 2-butanone, 323.15 K): 0.645
solubility (mole fraction) (in THF, 283.15 K): 0.51
solubility (mole fraction) (in THF, 288.15 K): 0.525
solubility (mole fraction) (in THF, 293.15 K): 0.598
solubility (mole fraction) (in THF, 298.15 K): 0.631
solubility (mole fraction) (in THF, 303.15 K): 0.684
solubility (mole fraction) (in THF, 308.15 K): 0.735
solubility (mole fraction) (in THF, 313.15 K): 0.792
solubility (mole fraction) (in THF, 318.15 K): 0.837
solubility (mole fraction) (in THF, 323.15 K): 0.886
solubility (mole fraction) (in acetonitrile, 283.15 K): 0.0745
solubility (mole fraction) (in acetonitrile, 288.15 K): 0.0772
solubility (mole fraction) (in acetonitrile, 293.15 K): 0.085
solubility (mole fraction) (in acetonitrile, 298.15 K): 0.0912
solubility (mole fraction) (in acetonitrile, 303.15 K): 0.0968
solubility (mole fraction) (in acetonitrile, 308.15 K): 0.105
solubility (mole fraction) (in acetonitrile, 313.15 K): 0.11
solubility (mole fraction) (in acetonitrile, 318.15 K): 0.12
solubility (mole fraction) (in acetonitrile, 323.15 K): 0.133
solubility (mole fraction) (in chloroform, 283.15 K): 0.00071
solubility (mole fraction) (in chloroform, 288.15 K): 0.00094
solubility (mole fraction) (in chloroform, 293.15 K): 0.00113
solubility (mole fraction) (in chloroform, 298.15 K): 0.00152
solubility (mole fraction) (in chloroform, 303.15 K): 0.00211
solubility (mole fraction) (in chloroform, 308.15 K): 0.00277
solubility (mole fraction) (in chloroform, 313.15 K): 0.0035
solubility (mole fraction) (in chloroform, 318.15 K): 0.00476
solubility (mole fraction) (in chloroform, 323.15 K): 0.00693
solubility (mole fraction) (in epichlorohydrin, 283.15 K): 0.0361
solubility (mole fraction) (in epichlorohydrin, 288.15 K): 0.0395
solubility (mole fraction) (in epichlorohydrin, 293.15 K): 0.0422
solubility (mole fraction) (in epichlorohydrin, 298.15 K): 0.0467
solubility (mole fraction) (in epichlorohydrin, 303.15 K): 0.0498
solubility (mole fraction) (in epichlorohydrin, 308.15 K): 0.0536
solubility (mole fraction) (in epichlorohydrin, 313.15 K): 0.0582
solubility (mole fraction) (in epichlorohydrin, 318.15 K): 0.0634
solubility (mole fraction) (in epichlorohydrin, 323.15 K): 0.0715
solubility (mole fraction) (in ethyl acetate, 283.15 K): 0.0671
solubility (mole fraction) (in ethyl acetate, 288.15 K): 0.0791
solubility (mole fraction) (in ethyl acetate, 293.15 K): 0.0913
solubility (mole fraction) (in ethyl acetate, 298.15 K): 0.103
solubility (mole fraction) (in ethyl acetate, 303.15 K): 0.125
solubility (mole fraction) (in ethyl acetate, 308.15 K): 0.146
solubility (mole fraction) (in ethyl acetate, 313.15 K): 0.163
solubility (mole fraction) (in ethyl acetate, 318.15 K): 0.193
solubility (mole fraction) (in ethyl acetate, 323.15 K): 0.224
solubility (mole fraction) (in isobutanol, 283.15 K): 0.234
solubility (mole fraction) (in isobutanol, 288.15 K): 0.264
solubility (mole fraction) (in isobutanol, 293.15 K): 0.265
solubility (mole fraction) (in isobutanol, 298.15 K): 0.329
solubility (mole fraction) (in isobutanol, 303.15 K): 0.355
solubility (mole fraction) (in isobutanol, 308.15 K): 0.391
solubility (mole fraction) (in isobutanol, 313.15 K): 0.438
solubility (mole fraction) (in isobutanol, 318.15 K): 0.486
solubility (mole fraction) (in isobutanol, 323.15 K): 0.539
solubility (mole fraction) (in isopentanol, 283.15 K): 0.228
solubility (mole fraction) (in isopentanol, 288.15 K): 0.258
solubility (mole fraction) (in isopentanol, 293.15 K): 0.29
solubility (mole fraction) (in isopentanol, 298.15 K): 0.315
solubility (mole fraction) (in isopentanol, 303.15 K): 0.351
solubility (mole fraction) (in isopentanol, 308.15 K): 0.376
solubility (mole fraction) (in isopentanol, 313.15 K): 0.408
solubility (mole fraction) (in isopentanol, 318.15 K): 0.46
solubility (mole fraction) (in isopentanol, 323.15 K): 0.508
solubility (mole fraction) (in n-pentanol, 283.15 K): 0.266
solubility (mole fraction) (in n-pentanol, 288.15 K): 0.315
solubility (mole fraction) (in n-pentanol, 293.15 K): 0.365
solubility (mole fraction) (in n-pentanol, 298.15 K): 0.412
solubility (mole fraction) (in n-pentanol, 303.15 K): 0.465
solubility (mole fraction) (in n-pentanol, 308.15 K): 0.513
solubility (mole fraction) (in n-pentanol, 313.15 K): 0.552
solubility (mole fraction) (in n-pentanol, 318.15 K): 0.631
solubility (mole fraction) (in n-pentanol, 323.15 K): 0.679
solubility (mole fraction) (in n-propanol, 283.15 K): 0.317
solubility (mole fraction) (in n-propanol, 288.15 K): 0.361
solubility (mole fraction) (in n-propanol, 293.15 K): 0.412
solubility (mole fraction) (in n-propanol, 298.15 K): 0.468
solubility (mole fraction) (in n-propanol, 303.15 K): 0.516
solubility (mole fraction) (in n-propanol, 308.15 K): 0.567
solubility (mole fraction) (in n-propanol, 313.15 K): 0.612
solubility (mole fraction) (in n-propanol, 318.15 K): 0.7
solubility (mole fraction) (in n-propanol, 323.15 K): 0.803
solubility (mole fraction) (in water, 283.15 K): 0.002
solubility (mole fraction) (in water, 288.15 K): 0.0032
solubility (mole fraction) (in water, 293.15 K): 0.00414
solubility (mole fraction) (in water, 298.15 K): 0.00529
solubility (mole fraction) (in water, 303.15 K): 0.00738
solubility (mole fraction) (in water, 308.15 K): 0.00924
solubility (mole fraction) (in water, 313.15 K): 0.0111
solubility (mole fraction) (in water, 318.15 K): 0.0136
solubility (mole fraction) (in water, 323.15 K): 0.0169

— BigSolDB 2.1
